Assay results from PMC6979384, “Characterization of the plant homeodomain (PHD) reader family for their histone tail interactions” (Epigenetics & Chromatin, 2020).

Tests used:
Assay in all cases: Histone peptide microarray
Assay type in all cases: binding, human
TRIM66 (PB) = conditions: for Array Heatmap signal, TRIM66 (PB): sheet "Array Heatmap", GST-tagged TRIM66 (PB), arrays performed twice, total replicate number n = 4
Method in brief: (§1)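 A peptide microarray holding 293 synthetic histone peptides with individual or combinatorial modifications was probed with each GST-PHD protein at 0.5 μM. Values represent mean intensity (±SD) from four replicates.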

KDM7A = conditions: GST-tagged KDM7A; for Array Heatmap signal, KDM7A: sheet "Array Heatmap", arrays performed twice, total replicate number n = 4
Method in brief: as §1

PHF21A = conditions: GST-tagged PHF21A; for Array Heatmap signal, PHF21A: sheet "Array Heatmap", arrays performed twice, total replicate number n = 4
Method in brief: as §1

CHD4 (PPCC) = conditions: for Array Heatmap signal, CHD4 (PPCC): sheet "Array Heatmap", GST-tagged CHD4 (PPCC), arrays performed twice, total replicate number n = 4
Method in brief: as §1

KDM5A (1) = conditions: GST-tagged KDM5A (1); for Array Heatmap signal, KDM5A (1): sheet "Array Heatmap", arrays performed twice, total replicate number n = 4
Method in brief: as §1

KDM5A (3) = conditions: GST-tagged KDM5A (3); for Array Heatmap signal, KDM5A (3): sheet "Array Heatmap", arrays performed twice, total replicate number n = 4
Method in brief: as §1

PHF8 = conditions: GST-tagged PHF8; for Array Heatmap signal, PHF8: sheet "Array Heatmap", arrays performed twice, total replicate number n = 4
Method in brief: as §1

AIRE (PP) = conditions: GST-tagged AIRE (PP); for Array Heatmap signal, AIRE (PP): sheet "Array Heatmap", arrays performed twice, total replicate number n = 4
Method in brief: as §1

PHRF1 (RP) = conditions: GST-tagged PHRF1 (RP); for Array Heatmap signal, PHRF1 (RP): sheet "Array Heatmap", arrays performed twice, total replicate number n = 4
Method in brief: as §1

DIDO1 = conditions: GST-tagged DIDO1; for Array Heatmap signal, DIDO1: sheet "Array Heatmap", arrays performed twice, total replicate number n = 4
Method in brief: as §1

SP140L = conditions: GST-tagged SP140L; for Array Heatmap signal, SP140L: sheet "Array Heatmap", arrays performed twice, total replicate number n = 4
Method in brief: as §1

KDM5B (1) = conditions: GST-tagged KDM5B (1); for Array Heatmap signal, KDM5B (1): sheet "Array Heatmap", arrays performed twice, total replicate number n = 4
Method in brief: as §1

ING2 = conditions: GST-tagged ING2; for Array Heatmap signal, ING2: sheet "Array Heatmap", arrays performed twice, total replicate number n = 4
Method in brief: as §1

ING5 = conditions: GST-tagged ING5; for Array Heatmap signal, ING5: sheet "Array Heatmap", arrays performed twice, total replicate number n = 4
Method in brief: as §1

RAG2 = conditions: GST-tagged RAG2; for Array Heatmap signal, RAG2: sheet "Array Heatmap", arrays performed twice, total replicate number n = 4
Method in brief: as §1

KDM4C (TTP) = conditions: for Array Heatmap signal, KDM4C (TTP): sheet "Array Heatmap", GST-tagged KDM4C (TTP), arrays performed twice, total replicate number n = 4
Method in brief: as §1

CHD5 (PCC) = conditions: for Array Heatmap signal, CHD5 (PCC): sheet "Array Heatmap", GST-tagged CHD5 (PCC), arrays performed twice, total replicate number n = 4
Method in brief: as §1

MLL5 = conditions: GST-tagged MLL5; for Array Heatmap signal, MLL5: sheet "Array Heatmap", arrays performed twice, total replicate number n = 4
Method in brief: as §1

DPF2 (PPC2W2) = conditions: for Array Heatmap signal, DPF2 (PPC2W2): sheet "Array Heatmap", GST-tagged DPF2 (PPC2W2), arrays performed twice, total replicate number n = 4
Method in brief: as §1

CHD5 (PPCC) = conditions: for Array Heatmap signal, CHD5 (PPCC): sheet "Array Heatmap", GST-tagged CHD5 (PPCC), arrays performed twice, total replicate number n = 4
Method in brief: as §1

KDM5B (3) = conditions: GST-tagged KDM5B (3); for Array Heatmap signal, KDM5B (3): sheet "Array Heatmap", arrays performed twice, total replicate number n = 4
Method in brief: as §1

ING4 = conditions: GST-tagged ING4; for Array Heatmap signal, ING4: sheet "Array Heatmap", arrays performed twice, total replicate number n = 4
Method in brief: as §1

BPTF (PB) = conditions: for Array Heatmap signal, BPTF (PB): sheet "Array Heatmap", GST-tagged BPTF (PB), arrays performed twice, total replicate number n = 4
Method in brief: as §1

ING3 = conditions: GST-tagged ING3; for Array Heatmap signal, ING3: sheet "Array Heatmap", arrays performed twice, total replicate number n = 4
Method in brief: as §1

TAF3 = conditions: GST-tagged TAF3; for Array Heatmap signal, TAF3: sheet "Array Heatmap", arrays performed twice, total replicate number n = 4
Method in brief: as §1

PHF2 = conditions: GST-tagged PHF2; for Array Heatmap signal, PHF2: sheet "Array Heatmap", arrays performed twice, total replicate number n = 4
Method in brief: as §1

BAZ2B = conditions: GST-tagged BAZ2B; for Array Heatmap signal, BAZ2B: sheet "Array Heatmap", arrays performed twice, total replicate number n = 4
Method in brief: as §1

PHF23 = conditions: GST-tagged PHF23; for Array Heatmap signal, PHF23: sheet "Array Heatmap", arrays performed twice, total replicate number n = 4
Method in brief: as §1

MORC3 (CW) = conditions: for Array Heatmap signal, MORC3 (CW): sheet "Array Heatmap", GST-tagged MORC3 (CW), arrays performed twice, total replicate number n = 4
Method in brief: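 GST-PHD reader, 0.5 μM, probed on 293-peptide histone array (single/combinatorial PTMs); optimized array protocol; signal = mean ± SD, n = 4.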

PHF13 = conditions: GST-tagged PHF13; for Array Heatmap signal, PHF13: sheet "Array Heatmap", arrays performed twice, total replicate number n = 4
Method in brief: as §1

ING1 = conditions: GST-tagged ING1; for Array Heatmap signal, ING1: sheet "Array Heatmap", arrays performed twice, total replicate number n = 4
Method in brief: as §1

[1] = sheet Array Heatmap, each array performed twice, total n = 4

Substance: H3K4ac + K9me1 + K14ac + K18ac: H3 1-20
- Array Heatmap signal, TRIM66 (PB) (TRIM66 (PB)): 0.5413
- Array Heatmap signal, KDM7A (KDM7A): 0.4836
- Array Heatmap signal, PHF21A (PHF21A): 0.4512
- Array Heatmap signal, CHD4 (PPCC) (CHD4 (PPCC)): 0.5629
- Array Heatmap signal, KDM5A (1) (KDM5A (1)): 0.4805
- Array Heatmap signal, KDM5A (3) (KDM5A (3)): 0.3935
- Array Heatmap signal, PHF8 (PHF8): 0.3261
- Array Heatmap signal, AIRE (PP) (AIRE (PP)): 0.5251
- Array Heatmap signal, PHRF1 (RP) (PHRF1 (RP)): 0.3692
- Array Heatmap signal, DIDO1 (DIDO1): 0.5412
- Array Heatmap signal, SP140L (SP140L): 0.3469
- Array Heatmap signal, KDM5B (1) (KDM5B (1)): 0.6293
- Array Heatmap signal, ING2 (ING2): 0.5869
- Array Heatmap signal, ING5 (ING5): 0.3469
- Array Heatmap signal, RAG2 (RAG2): 0.2267
- Array Heatmap signal, KDM4C (TTP) (KDM4C (TTP)): 0.5174
- Array Heatmap signal, CHD5 (PCC) (CHD5 (PCC)): 0.8198
- Array Heatmap signal, MLL5 (MLL5): 0.5142
- Array Heatmap signal, DPF2 (PPC2W2) (DPF2 (PPC2W2)): 0.6154
- Array Heatmap signal, CHD5 (PPCC) (CHD5 (PPCC)): 0.5431
- Array Heatmap signal, KDM5B (3) (KDM5B (3)): 0.497
- Array Heatmap signal, ING4 (ING4): 0.4584
- Array Heatmap signal, BPTF (PB) (BPTF (PB)): 0.3424
- Array Heatmap signal, ING3 (ING3): 0.4265
- Array Heatmap signal, TAF3 (TAF3): 0.2619
- Array Heatmap signal, PHF2 (PHF2): 0.368
- Array Heatmap signal, BAZ2B (BAZ2B): 0.5783
- Array Heatmap signal, PHF23 (PHF23): 0.4792
- Array Heatmap signal, MORC3 (CW) (MORC3 (CW)): 0.3311
- Array Heatmap signal, PHF13 (PHF13): 0.5879
- Array Heatmap signal, ING1 (ING1): 0.4555

Substance: H3K4ac + K9me2 + K14ac + K18ac: H3 1-20
- Array Heatmap signal, TRIM66 (PB) (TRIM66 (PB)): 0.6234
- Array Heatmap signal, KDM7A (KDM7A): 0.3693
- Array Heatmap signal, PHF21A (PHF21A): 0.517
- Array Heatmap signal, CHD4 (PPCC) (CHD4 (PPCC)): 0.5924
- Array Heatmap signal, KDM5A (1) (KDM5A (1)): 0.4994
- Array Heatmap signal, KDM5A (3) (KDM5A (3)): 0.4792
- Array Heatmap signal, PHF8 (PHF8): 0.3959
- Array Heatmap signal, AIRE (PP) (AIRE (PP)): 0.5959
- Array Heatmap signal, PHRF1 (RP) (PHRF1 (RP)): 0.5426
- Array Heatmap signal, DIDO1 (DIDO1): 0.6996
- Array Heatmap signal, SP140L (SP140L): 0.3786
- Array Heatmap signal, KDM5B (1) (KDM5B (1)): 0.6474
- Array Heatmap signal, ING2 (ING2): 0.6022
- Array Heatmap signal, ING5 (ING5): 0.3863
- Array Heatmap signal, RAG2 (RAG2): 0.2604
- Array Heatmap signal, KDM4C (TTP) (KDM4C (TTP)): 0.5332
- Array Heatmap signal, CHD5 (PCC) (CHD5 (PCC)): 0.8289
- Array Heatmap signal, MLL5 (MLL5): 0.5581
- Array Heatmap signal, DPF2 (PPC2W2) (DPF2 (PPC2W2)): 0.7053
- Array Heatmap signal, CHD5 (PPCC) (CHD5 (PPCC)): 0.5961
- Array Heatmap signal, KDM5B (3) (KDM5B (3)): 0.5157
- Array Heatmap signal, ING4 (ING4): 0.4857
- Array Heatmap signal, BPTF (PB) (BPTF (PB)): 0.3687
- Array Heatmap signal, ING3 (ING3): 0.5023
- Array Heatmap signal, TAF3 (TAF3): 0.2754
- Array Heatmap signal, PHF2 (PHF2): 0.5092
- Array Heatmap signal, BAZ2B (BAZ2B): 0.5255
- Array Heatmap signal, PHF23 (PHF23): 0.5641
- Array Heatmap signal, MORC3 (CW) (MORC3 (CW)): 0.4166
- Array Heatmap signal, PHF13 (PHF13): 0.6376
- Array Heatmap signal, ING1 (ING1): 0.5602

Substance: H3K4ac + K14ac: H3 1-20
- Array Heatmap signal (histone peptide microarray) (TRIM66 (PB); GST-tagged TRIM66 (PB = PHD + Bromodomain), sheet Array Heatmap, each array performed twice, total n = 4): 0.6492
- Array Heatmap signal (histone peptide microarray) (KDM7A; [1]): 0.4116
- Array Heatmap signal (histone peptide microarray) (PHF21A; [1]): 0.4619
- Array Heatmap signal (histone peptide microarray) (CHD4 (PPCC); GST-tagged CHD4 (PPCC = Dual PHD + Dual Chromodomain), sheet Array Heatmap, each array performed twice, total n = 4): 0.5746
- Array Heatmap signal (histone peptide microarray) (KDM5A (1); [1]): 0.4998
- Array Heatmap signal (histone peptide microarray) (KDM5A (3); [1]): 0.4971
- Array Heatmap signal (histone peptide microarray) (PHF8; [1]): 0.3555
- Array Heatmap signal (histone peptide microarray) (AIRE (PP); [1]): 0.4945
- Array Heatmap signal (histone peptide microarray) (PHRF1 (RP); [1]): 0.5779
- Array Heatmap signal (histone peptide microarray) (DIDO1; [1]): 0.6468
- Array Heatmap signal (histone peptide microarray) (SP140L; [1]): 0.3353
- Array Heatmap signal (histone peptide microarray) (KDM5B (1); [1]): 0.6896
- Array Heatmap signal (histone peptide microarray) (ING2; [1]): 0.6101
- Array Heatmap signal (histone peptide microarray) (ING5; [1]): 0.3447
- Array Heatmap signal (histone peptide microarray) (RAG2; [1]): 0.2771
- Array Heatmap signal (histone peptide microarray) (KDM4C (TTP); GST-tagged KDM4C (TTP = Tandem Tudor domain + PHD), sheet Array Heatmap, each array performed twice, total n = 4): 0.505
- Array Heatmap signal (histone peptide microarray) (CHD5 (PCC); GST-tagged CHD5 (PCC = PHD + Dual Chromodomain), sheet Array Heatmap, each array performed twice, total n = 4): 0.8648
- Array Heatmap signal (histone peptide microarray) (MLL5; [1]): 0.5464
- Array Heatmap signal (histone peptide microarray) (DPF2 (PPC2W2); GST-tagged DPF2 (PPC2W2 = Dual PHD + C2W2-type Zn-finger), sheet Array Heatmap, each array performed twice, total n = 4): 0.6791
- Array Heatmap signal (histone peptide microarray) (CHD5 (PPCC); GST-tagged CHD5 (PPCC = Dual PHD + Dual Chromodomain), sheet Array Heatmap, each array performed twice, total n = 4): 0.5648
- Array Heatmap signal (histone peptide microarray) (KDM5B (3); [1]): 0.5625
- Array Heatmap signal (histone peptide microarray) (ING4; [1]): 0.4509
- Array Heatmap signal (histone peptide microarray) (BPTF (PB); GST-tagged BPTF (PB = PHD + Bromodomain), sheet Array Heatmap, each array performed twice, total n = 4): 0.4507
- Array Heatmap signal (histone peptide microarray) (ING3; [1]): 0.5142
- Array Heatmap signal (histone peptide microarray) (TAF3; [1]): 0.2918
- Array Heatmap signal (histone peptide microarray) (PHF2; [1]): 0.5218
- Array Heatmap signal (histone peptide microarray) (BAZ2B; [1]): 0.8376
- Array Heatmap signal (histone peptide microarray) (PHF23; [1]): 0.5688
- Array Heatmap signal (histone peptide microarray) (MORC3 (CW); GST-tagged MORC3 (CW = CW-type Zn-finger), sheet Array Heatmap, each array performed twice, total n = 4): 0.433
- Array Heatmap signal (histone peptide microarray) (PHF13; [1]): 0.6284
- Array Heatmap signal (histone peptide microarray) (ING1; [1]): 0.5034
